Test results: patent publication US11352340B2, “Pyridine and pyridimine compounds as PI3K-gamma inhibitors” (Incyte Corporation, priority 2016, dated 2022)
Where a name gives a salt, the structure may show the parent alone.

Key:
[1] = molecular target: PI3Kδ (p110δ/p85α) Recombinant Human Protein (Homo sapiens (Human), UniProt O00329); experiment: PI3Kδ Scintillation Proximity Assay; format: biochemical; conditions: read-out: PI3K-delta SPA IC50
Source text: Example C. PI3Kδ Scintillation Proximity Assay
(§1) [γ-^33P]ATP (10 mCi/mL) and Wheat Germ Agglutinin (WGA) YSi SPA Scintillation Beads was purchased from Perkin-Elmer (Waltham, Mass.). Lipid kinase substrate, D-myo-Phosphatidylinositol 4,5-bisphosphate (PtdIns(4,5)P2)D (+)-sn-1,2-di-O-octanoylglyceryl, 3-O-phospho linked (PIP2), CAS 204858-53-7, was purchased from Echelon Biosciences (Salt Lake City, Utah). PI3Kδ (p110δ/p85α) Recombinant Human Protein was purchased from Eurofins (St Charles, Mo.). ATP, MgCl2, DTT, EDTA, MOPS and CHAPS were purchased from Sigma-Aldrich (St. Louis, Mo.).
(§2) The kinase reaction was conducted in polystyrene 384-well Greiner Bio-one white plate from Thermo Fisher Scientific in a final volume of 25 μL. Inhibitors were first diluted serially in DMSO and added to the plate wells before the addition of other reaction components. The final concentration of DMSO in the assay was 2%. The PI3Kδ assay was carried out at room temperature in 20 mM MOPS, pH 6.7, 10 mM MgCl2, 5 mM DTT and CHAPS 0.03%. Reactions were initiated by the addition of ATP, the final reaction mixture consisted of 20 μM PIP2, 2 μM ATP, 0.5 μCi [γ-^33P] ATP, 3.4 nM PI3Kδ. Reactions were incubated for 120 min and terminated by the addition of 40 μL SPA beads suspended in quench buffer: 163 mM potassium phosphate pH 7.8, 20% glycerol, 25 mM EDTA. The final concentration of SPA beads is 1.0 mg/mL. After the plate sealing, plates were shaken overnight at room temperature and centrifuged at 1500 rpm for 10 min, the radioactivity of the product was determined by scintillation counting on Topcount (Perkin-Elmer). IC50 determination was performed by fitting the curve of percent of the solvent control activity versus the log of the inhibitor concentration using the GraphPad Prism 6.0 software.

[2] = molecular target: PI3Kγ (p110γ) Recombinant Human Protein (Homo sapiens (Human), UniProt P48736); experiment: PI3K-γ Scintillation Proximity Assay; format: biochemical; conditions: read-out: PI3K-gamma SPA IC50
Source text: Example B. PI3K-γ Scintillation Proximity Assay
as §1, with “PI3Kγ (p110γ)” for “PI3Kδ (p110δ/p85α)”, “Life technology (Grand Island, N.Y.).” for “Eurofins (St Charles, Mo.).”
as §2, with “PI3Kγ” for “PI3Kδ”, “13” for “3.4”, “PI3Kγ.” for “PI3Kδ.”

PI3Kδ (p110δ/p85α) Recombinant Human Protein, sequence (O00329 whole entry): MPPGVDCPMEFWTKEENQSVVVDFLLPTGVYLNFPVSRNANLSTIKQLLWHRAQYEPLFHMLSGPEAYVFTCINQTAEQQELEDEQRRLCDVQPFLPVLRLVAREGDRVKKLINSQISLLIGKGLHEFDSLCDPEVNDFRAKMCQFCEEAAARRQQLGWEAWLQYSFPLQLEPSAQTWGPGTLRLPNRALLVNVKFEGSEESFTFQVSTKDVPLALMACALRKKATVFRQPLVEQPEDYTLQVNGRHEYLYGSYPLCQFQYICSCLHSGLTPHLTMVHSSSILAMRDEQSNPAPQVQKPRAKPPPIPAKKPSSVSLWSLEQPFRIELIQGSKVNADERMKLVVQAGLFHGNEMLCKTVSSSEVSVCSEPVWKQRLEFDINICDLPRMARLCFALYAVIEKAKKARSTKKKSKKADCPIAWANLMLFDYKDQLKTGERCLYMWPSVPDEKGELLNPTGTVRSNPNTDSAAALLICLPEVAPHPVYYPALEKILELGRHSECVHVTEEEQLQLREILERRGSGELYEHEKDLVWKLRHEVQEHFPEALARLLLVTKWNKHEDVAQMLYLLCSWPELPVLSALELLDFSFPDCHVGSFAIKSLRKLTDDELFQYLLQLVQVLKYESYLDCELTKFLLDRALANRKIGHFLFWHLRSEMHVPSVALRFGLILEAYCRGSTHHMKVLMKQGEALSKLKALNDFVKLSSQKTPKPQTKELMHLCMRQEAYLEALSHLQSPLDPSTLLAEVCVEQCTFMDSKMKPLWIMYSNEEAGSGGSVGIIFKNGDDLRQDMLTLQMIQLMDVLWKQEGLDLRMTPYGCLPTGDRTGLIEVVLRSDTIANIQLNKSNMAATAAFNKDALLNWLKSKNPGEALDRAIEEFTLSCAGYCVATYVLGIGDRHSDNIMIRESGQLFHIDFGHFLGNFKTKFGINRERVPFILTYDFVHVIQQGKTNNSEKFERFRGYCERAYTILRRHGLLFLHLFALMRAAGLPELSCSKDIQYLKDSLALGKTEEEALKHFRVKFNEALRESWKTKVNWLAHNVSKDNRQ
PI3Kδ (p110δ/p85α) Recombinant Human Protein, sequence (P27986 whole entry partner): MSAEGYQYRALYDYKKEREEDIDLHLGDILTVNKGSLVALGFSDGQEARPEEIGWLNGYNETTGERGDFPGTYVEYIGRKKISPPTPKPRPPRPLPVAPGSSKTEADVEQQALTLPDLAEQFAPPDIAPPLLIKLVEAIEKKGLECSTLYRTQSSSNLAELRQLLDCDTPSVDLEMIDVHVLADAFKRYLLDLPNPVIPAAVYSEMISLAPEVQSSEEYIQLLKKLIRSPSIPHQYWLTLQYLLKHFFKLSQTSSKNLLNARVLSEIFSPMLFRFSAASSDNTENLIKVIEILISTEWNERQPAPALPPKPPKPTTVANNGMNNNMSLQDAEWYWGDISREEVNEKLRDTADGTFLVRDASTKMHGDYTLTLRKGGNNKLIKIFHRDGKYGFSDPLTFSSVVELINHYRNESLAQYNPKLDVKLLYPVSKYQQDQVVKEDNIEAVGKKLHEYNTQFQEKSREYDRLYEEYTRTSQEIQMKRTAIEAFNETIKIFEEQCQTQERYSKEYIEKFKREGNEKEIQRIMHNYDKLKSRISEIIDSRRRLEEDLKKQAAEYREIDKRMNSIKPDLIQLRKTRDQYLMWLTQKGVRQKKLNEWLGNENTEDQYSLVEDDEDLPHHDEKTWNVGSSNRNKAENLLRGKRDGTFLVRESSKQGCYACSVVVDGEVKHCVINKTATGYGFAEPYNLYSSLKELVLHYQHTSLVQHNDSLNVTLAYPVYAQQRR
PI3Kγ (p110γ) Recombinant Human Protein, sequence (P48736 whole entry): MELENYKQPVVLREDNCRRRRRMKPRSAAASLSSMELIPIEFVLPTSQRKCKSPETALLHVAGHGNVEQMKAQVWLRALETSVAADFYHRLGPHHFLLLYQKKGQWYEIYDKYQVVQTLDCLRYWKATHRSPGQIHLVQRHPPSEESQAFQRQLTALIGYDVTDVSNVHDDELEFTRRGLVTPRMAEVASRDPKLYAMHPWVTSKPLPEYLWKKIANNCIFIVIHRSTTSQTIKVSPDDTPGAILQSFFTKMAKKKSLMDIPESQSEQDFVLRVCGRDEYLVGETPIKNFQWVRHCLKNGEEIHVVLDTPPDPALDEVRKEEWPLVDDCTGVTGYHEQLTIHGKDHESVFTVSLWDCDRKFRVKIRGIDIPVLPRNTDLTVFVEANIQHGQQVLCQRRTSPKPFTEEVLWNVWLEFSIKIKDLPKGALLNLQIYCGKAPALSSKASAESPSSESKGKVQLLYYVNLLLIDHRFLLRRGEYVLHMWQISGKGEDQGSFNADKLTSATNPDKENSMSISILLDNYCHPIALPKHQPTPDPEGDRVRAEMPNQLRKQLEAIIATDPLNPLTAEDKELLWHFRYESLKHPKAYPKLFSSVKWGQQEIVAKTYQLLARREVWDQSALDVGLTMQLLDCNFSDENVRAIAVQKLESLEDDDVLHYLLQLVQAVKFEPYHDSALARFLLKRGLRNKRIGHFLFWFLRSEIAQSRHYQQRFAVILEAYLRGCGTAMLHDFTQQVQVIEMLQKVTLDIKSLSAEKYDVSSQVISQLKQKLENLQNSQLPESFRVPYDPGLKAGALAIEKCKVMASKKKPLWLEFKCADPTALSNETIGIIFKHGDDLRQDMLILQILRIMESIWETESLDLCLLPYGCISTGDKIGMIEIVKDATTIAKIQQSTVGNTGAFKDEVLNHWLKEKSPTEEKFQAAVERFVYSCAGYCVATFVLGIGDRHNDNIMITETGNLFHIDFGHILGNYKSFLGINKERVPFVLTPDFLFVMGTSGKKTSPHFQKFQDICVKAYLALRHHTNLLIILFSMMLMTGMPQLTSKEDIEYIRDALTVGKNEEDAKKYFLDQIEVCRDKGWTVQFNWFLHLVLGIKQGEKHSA

Compound	IC50 [1] [nM]	IC50 [2] [nM]
CCOC(=O)c1nc(-c2cc(-c3cncc(OC)c3)ccn2)[nH]c1C(F)(F)F [Example 80, Ethyl 2-(5-methoxy-3,4′-bipyridin-2′-yl)-5-(trifluoromethyl)-1H-imidazole-4-carboxylate]	> 500	> 500
COc1cncc(-c2ccnc(-c3nc(C(=O)O)c(C(F)(F)F)[nH]3)c2)c1 [Example 81, 2-(5-Methoxy-3,4′-bipyridin-2′-yl)-5-(trifluoromethyl)-1H-imidazole-4-carboxylic acid trifluoroacetate salt]	> 500	> 500
COc1cncc(-c2cc(-c3nc4ccccc4[nH]3)ncn2)c1 [Example 95, trifluoroacetate salt]	> 500	> 500
CCc1cnc(-c2cc(-c3cncc(N4CCOCC4)c3)ccn2)[nH]1 [Example 100, 4-(2′-(5-Ethyl-1H-imidazol-2-yl)-3,4′-bipyridin-5-yl)morpholine trifluoroacetate salt]	≤ 500	≤ 500
CC(C)c1cnc(-c2cc(-c3cncc(N4CCOCC4)c3)ccn2)[nH]1 [Example 101, 4-(2′-(5-Isopropyl-1H-imidazol-2-yl)-3,4′-bipyridin-5-yl)morpholine trifluoroacetate salt]	≤ 500	≤ 500
CC(C)(C)OC(=O)Nc1cncc(-c2ccnc(-c3ncc(-c4ccccc4)[nH]3)c2)c1 [Example 126, tert-Butyl [2′-(5-phenyl-1H-imidazol-2-yl)-3,4′-bipyridin-5-yl]carbamate]	≤ 500	≤ 500
Cc1nc(-c2cc(-c3cncc(NC(=O)OC(C)(C)C)c3)ccn2)[nH]c1C [Example 128, tert-Butyl [2′-(4,5-dimethyl-1H-imidazol-2-yl)-3,4′-bipyridin-5-yl]carbamate]	≤ 500	≤ 500
Cc1nc(-c2cc(-c3cncc(N)c3)ccn2)[nH]c1C [Example 129, 2′-(4,5-Dimethyl-1H-imidazol-2-yl)-3,4′-bipyridin-5-amine]	≤ 500	≤ 100
O=C(Nc1cncc(-c2ccnc(-c3ncc(-c4ccccc4)[nH]3)c2)c1)c1ccccc1 [Example 132, N-(2′-(5-Phenyl-1H-imidazol-2-yl)-3,4′-bipyridin-5-yl)benzamide]	≤ 500	≤ 500
O=C(Nc1cncc(-c2ccnc(-c3ncc(-c4ccccc4)[nH]3)c2)c1)c1ccccc1Cl [Example 133, 2-Chloro-N-(2′-(5-phenyl-1H-imidazol-2-yl)-3,4′-bipyridin-5-yl)benzamide]	≤ 100	≤ 500
O=C(Nc1cncc(-c2ccnc(-c3ncc(-c4ccccc4)[nH]3)c2)c1)c1cccc(Cl)c1 [Example 134, 3-Chloro-N-(2′-(5-phenyl-1H-imidazol-2-yl)-3,4′-bipyridin-5-yl)benzamide]	> 500	> 500
O=C(Nc1cncc(-c2ccnc(-c3ncc(-c4ccccc4)[nH]3)c2)c1)c1ccc(Cl)cc1 [Example 135, 4-Chloro-N-(2′-(5-phenyl-1H-imidazol-2-yl)-3,4′-bipyridin-5-yl)benzamide]	≤ 500	> 500
N#Cc1cccc(C(=O)Nc2cncc(-c3ccnc(-c4ncc(-c5ccccc5)[nH]4)c3)c2)c1 [Example 136, 3-Cyano-N-(2′-(5-phenyl-1H-imidazol-2-yl)-3,4′-bipyridin-5-yl)benzamide]	≤ 500	≤ 500
N#Cc1ccc(C(=O)Nc2cncc(-c3ccnc(-c4ncc(-c5ccccc5)[nH]4)c3)c2)cc1 [Example 137, 4-Cyano-N-(2′-(5-phenyl-1H-imidazol-2-yl)-3,4′-bipyridin-5-yl)benzamide]	≤ 500	≤ 500
CCNC(=O)Nc1cncc(-c2ccnc(-c3ncc(-c4ccccc4)[nH]3)c2)c1 [Example 139, N-Ethyl-N′-[2′-(5-phenyl-1H-imidazol-2-yl)-3,4′-bipyridin-5-yl]urea Trifluoroacetate Salt]	≤ 100	≤ 500
CCOC(=O)Nc1cncc(-c2ccnc(-c3ncc(-c4ccccc4)[nH]3)c2)c1 [Example 140, Ethyl 2′-(5-phenyl-1H-imidazol-2-yl)-3,4′-bipyridin-5-ylcarbamate Trifluoroacetate Salt]	≤ 50	≤ 100
CN1CCC(Nc2cncc(-c3ccnc(-c4ncc(-c5ccccc5)[nH]4)c3)c2)CC1 [Example 143, N-(1-Methylpiperidin-4-yl)-2′-(5-phenyl-1H-imidazol-2-yl)-3,4′-bipyridin-5-amine trifluoroacetate salt]	≤ 100	≤ 100
CN1CCC(CNc2cncc(-c3ccnc(-c4ncc(-c5ccccc5)[nH]4)c3)c2)CC1 [Example 144, N-((1-Methylpiperidin-4-yl)methyl)-2′-(5-phenyl-1H-imidazol-2-yl)-3,4′-bipyridin-5-amine trifluoroacetate salt]	≤ 100	≤ 100
Cc1nc(-c2cc(-c3cncc(NCC4CCOCC4)c3)ccn2)[nH]c1C [Example 145, 2′-(4,5-Dimethyl-1H-imidazol-2-yl)-N-(tetrahydro-2H-pyran-4-ylmethyl)-3,4′-bipyridin-5-amine]	≤ 500	≤ 50
Cc1nc(-c2cc(-c3cncc(C(=O)N4CCN(C)CC4)c3)ccn2)[nH]c1C [Example 147, (2′-(4,5-Dimethyl-1H-imidazol-2-yl)-3,4′-bipyridin-5-yl)(4-methylpiperazin-1-yl)methanone]	≤ 500	≤ 500
Cc1nc(-c2cc(-c3cncc(C(=O)N4CCOCC4)c3)ccn2)[nH]c1C [Example 148, (2′-(4,5-Dimethyl-1H-imidazol-2-yl)-3,4′-bipyridin-5-yl)(morpholino)methanone]	≤ 500	≤ 100
Cc1nc(-c2cc(-c3cncc(C(=O)NCCCN(C)C)c3)ccn2)[nH]c1C [Example 149, 2′-(4,5-Dimethyl-1H-imidazol-2-yl)-N-(3-(dimethylamino)propyl)-3,4′-bipyridine-5-carboxamide]	> 500	≤ 100
Cc1nc(-c2cc(-c3cncc(C(=O)N4CCN(C(N)=O)CC4)c3)ccn2)[nH]c1C [Example 150, 4-(2′-(4,5-Dimethyl-1H-imidazol-2-yl)-3,4′-bipyridine-5-carbonyl)piperazine-1-carboxamide]	≤ 100	≤ 500
Cc1nc(-c2cc(-c3cncc(C(=O)NCC4CCOCC4)c3)ccn2)[nH]c1C [Example 162, 2′-(4,5-Dimethyl-1H-imidazol-2-yl)-N-((tetrahydro-2H-pyran-4-yl)methyl)-3,4′-bipyridine-5-carboxamide trifluoroacetate salt]	≤ 500	≤ 500
Cc1nc(-c2cc(-c3cncc(C(=O)NCCC4CCOCC4)c3)ccn2)[nH]c1C [Example 164, 2′-(4,5-Dimethyl-1H-imidazol-2-yl)-N-(2-(tetrahydro-2H-pyran-4-yl)ethyl)-3,4′-bipyridine-5-carboxamide trifluoroacetate salt]	≤ 50	≤ 500
COCCNC(=O)c1cncc(-c2ccnc(-c3nc(C)c(C)[nH]3)c2)c1 [Example 166, 2′-(4,5-Dimethyl-1H-imidazol-2-yl)-N-(2-methoxyethyl)-3,4′-bipyridine-5-carboxamide trifluoroacetate salt]	≤ 50	≤ 100
